Experimental data as given in patent publication US20090054527A1, “Administration of capsaicinoids” (AlgoRx, priority 2002, published 2009).
Several values for one entry are separate records, joined by “and”; a condition that tells them apart may be missing. Equal entries are not always repeated. Where two headings read alike, the source gives them in different places.

Tests used:
clinical = assay: clinical; design: species or system human; conditions: in vivo
Protocol: The pharmacokinetic parameters of Cmax, Tmax, AUC(0−tlast) and t½ were evaluated.

[1] = test system: subjects undergoing transpositional osteotomy (bunionectomy); assay: Bunionectomy efficacy study (Phase II): capsaicin dripped into the wound before closure; VAS pain and rescue medication; format: in vivo, human; conditions: for VAS pain score at the operation site (mean +/− SEM): 1000 μg, n = 11
Protocol: The primary efficacy endpoint was the proportion of subjects in each treatment group requiring opioid analgesia in the first 24 hours post-operatively. The proportions were compared amongst treatment groups using the Cochran-Haenszel test. Secondary efficacy end points included: i) proportion of subjects in each treatment group requiring opioid analgesia in the first 36 hour period post-operatively (Similarly, the proportions were compared amongst treatment groups using the Cochran-Haenszel test); ii) proportion of subjects in each treatment group requiring opioid analgesia in the 10 day period post-operatively (Similarly, the proportions were compared amongst treatment groups using the Cochran-Haenszel test); iii) time to first usage of opioid analgesia in each treatment group (a survival analysis approach will be used: the product-limit (Kaplan-Meier) method will be applied to time to first usage of opioid analgesia. The median time to first usage of opioid analgesia will be estimated in both treatment groups. Pairwise comparisons will be performed to test for equality of the survival curves between the 2 treatment groups using both the log-rank and the Wilcoxon test); iv) total usage of analgesia in each treatment group (the total usage of analgesia will be compared by an analysis of variance with treatment and center as independent variables. A pairwise comparison will be performed between the treatment groups); and v) VAS assessment of pain at the site of operation in each treatment group (The VAS score at each time point will be compared by an analysis of variance with treatment and center as independent variables. A pairwise comparison will be performed between the treatment groups). […] The efficacy analysis was performed on the data obtained ten days postoperatively. The safety analysis was performed based on the safety data for the entire study, including the 6 week and 12 week follow-up periods. The blind was broken at the time the efficacy analysis was performed. However, the individual treatment assignment was available to the statistical analysis group only. All other personnel involved in the study, including the Investigator, study monitor and proprietary staff, remained blinded until the entire study was completed.
The study was designed to include 40 evaluation subjects. […] Each subject had six (6) study visits: a Screening Day (Day −28 to −1), an Operation Day (Day 0), and four (4) Follow-up visits (scheduled for Days 3, 10 and weeks 6 and 12).
On Operation Day (Day 0) the following was performed: a) Pre-operation: Prior to the initiation of an ankle block, inclusion/exclusion criteria assessment was performed. […] Immediately prior to wound closure, the Investigator slowly dripped the study medication (4 mL) from a syringe into the wound, ensuring even tissue exposure. The wound was then be closed according to normal practices and procedures.
In the 24 hours following administration of study medication, vital signs (supine pulse rate and blood pressure) were recorded at 1, 2, 4 and 24 hours post administration. VAS assessment of pain at the operation site was performed at 1, 4, 8, 12 and 24 hours post administration. In those instances where VAS measurements coincide with blood sampling procedures, the VAS assessment was performed first. […] The quantity of each blood sample was 10 mL. Laboratory safety assessments, e.g., haematology, biochemistry, urinalysis were performed at 24 hours post administration. Adverse events were spontaneously reported by the subject and recorded. Rescue analgesia medication was provided to the subject if required (initially diclofenac 50 mg, repeated at 8 hourly intervals if necessary). When diclofenac was judged by the Investigator to provide inadequate pain relief then the subject was provided with alfentanil 1 mg, repeated at 6 hourly intervals, if necessary.

[2] = test system: radiation induced hyperalgesia; conditions: systemic, cited from earlier work
[3] = cited from earlier work
[4] = test system: subjects with osteoarthritis of the knee; assay: Osteoarthritis of the knee safety study (Phase 1): intra-articular purified capsaicin after lignocaine; safety, tolerability, VAS pain; format: in vivo, human
Protocol: The primary objective of the study was to evaluate the safety and tolerability of intra-articular capsaicin, when co-administered with intra-articular local anesthetic, compared to placebo, in subjects with end-stage osteoarthritis of the knee, already scheduled to receive knee replacements.
The study was designed to include 16 evaluation subjects. […] Sixteen subjects completed the study.
Patients were treated randomly and in double-blind fashion in four treatment groups, with each group having a progressively longer interval between the intra-articular administration of study medication and subsequent total knee replacement (2, 4, 7, and 14 days). […] Gross and microscopic pathology analysis was completed for each treatment group before the next treatment group was treated.
(§1) Each subject had 3 study visits: a Screening Day (Day −7 to −1), the Treatment Day (Day 0), and a Post-Treatment Day (scheduled for Day +2, +4, +7, or +14). On the Treatment Day the subject was randomized, pre-treatment evaluation was performed. The patients were brought into the procedure room, and a VAS pain score was taken (0 mm—no pain, 100 mm—extreme pain). Once the patient had marked his or her pain on the card, he/she was prepped for knee cannulation. Once the cannula was placed, the patient received by intra-articular infiltration, 3 mg/kg (maximum dose of 200 mg) of 2% lignocaine into the knee scheduled to be replaced.
VAS pain scores as well as verbal reports were taken immediately following administration, as well as prior to knee replacement surgery. No subjects discontinued from the study due to adverse events.
On the Post-Treatment Day, study evaluation was performed followed by the scheduled knee replacement, with intra-operative bone and soft tissue biopsies performed for subsequent examination. […] This therefore left the 3 placebo and 9 active patients from the 4 day, 7 day, and 14 day cohorts.

[5] = test system: subjects with osteoarthritis of the knee; assay: Osteoarthritis of the knee efficacy study (Phase 2): NRS pain score; format: in vivo, human; conditions: 1000 μg intra-articular, three weeks following administration, P=0.03
Protocol: as §1, with “The study is designed to include 12 evaluation subjects (Patients suffering a defined pain: >40 mm on VAS). […] Patients are treated randomly and in double-blind fashion. Gross and microscopic pathology analysis are completed for each treatment group. Each” for “Each”, “has” for “had”, “is” for “was”, “patient is” for “patients were”, “marks” for “had marked”, “receives,” for “received”
VAS pain scores as well as verbal reports are taken immediately following administration, as well as prior to knee replacement surgery. On the Post-Treatment Day, a study evaluation is performed followed by the scheduled knee replacement, with intra-operative bone and soft tissue biopsies performed for subsequent examination. […]
Changes in NRS (Numerical Rating Scale) pain scores were measured at three weeks following administration.

[6] = test system: inflammatory and neuropathic pain; conditions: formalin test and spinal nerve ligation; cited from earlier work
[7] = human, in vivo; cited from earlier work

Structure (SMILES): COc1cc(CNC(=O)CCCC/C=C/C(C)C)ccc1O [purified capsaicin, N-(4-hydroxy-3-methoxybenzyl)-8-methylnon-trans-6-enamide]
- Tmax (clinical; human, 300 ug): 30 min
- half-life (clinical; human, 300 ug, terminal exponential half life, per subject): 19.6 min
- plasma concentrations compared with the 100 μg and 300 μg dose groups (clinical): clearly lower
- time at which a subject required rescue, per subject ([1]; 1000 μg prior to wound closure): 1 h and 4 h and 5 h and 8 h and 12 h
- study subjects requiring rescue ([1]; 1000 μg prior to wound closure, 72 hours, n=11): 45%
- subjects that did not rescue in 72 hours ([1]; 1000 μg prior to wound closure, n=11): 6 subjects
- VAS pain score at the operation site (mean +/− SEM) ([1]; 1 hr): 11.1 +/− 7.3
- VAS pain score at the operation site (mean +/− SEM) ([1]; 8 hr): 5.5 +/− 2.3
- VAS pain score at the operation site (mean +/− SEM) ([1]; 12 hr): 8.2 +/− 3.8
- VAS pain score at the operation site (mean +/− SEM) ([1]; 24 hr): 1.9 +/− 1.0
- VAS pain score at the operation site (mean +/− SEM) ([1]; 48 hr): 5.9 +/− 2.5
- VAS pain score at the operation site (mean +/− SEM) ([1]; 72 hr): 10.6 +/− 3.5
- effect on radiation induced hyperalgesia ([2]; final doses of 25 mg/kg or less, prior to ultra violet radiation): prevented radiation induced hyperalgesia
- effect on pain threshold ([2]; final doses of 25 mg/kg or less): did not elevate the pain threshold above normal range
- effect on pain threshold ([2]; final doses of 50 mg/kg or greater): pain threshold elevated
- solubility in alcohol, ether, benzene and chloroform [3]: freely soluble
- solubility in water [3]: practically insoluble
- incidence of post injection hyperalgesia ([4]; 10 μg dose group): no subjects
- patients reporting transient burning pain immediately following instillation ([4]; 10 μg intra-articular): 0 of 4
- duration of post-administration (hyper)algesic pain, per subject ([4]; 100 μg dose group): 9 min
- incidence of post injection hyperalgesia ([4]; 100 μg dose group): 1 subject
- subjects requiring intervention for post-injection (hyper)algesia ([4]; 100 μg dose group): 1 subject
- patients reporting transient burning pain immediately following instillation ([4]; 100 μg intra-articular): 1 of 4
- duration of post-administration (hyper)algesic pain, per subject ([4]; 300 μg dose group): 17 minutes and 25 minutes (2×) and 42 minutes
- incidence of post injection hyperalgesia ([4]; 300 μg dose group): 4 subjects
- subjects requiring intervention for post-injection (hyper)algesia ([4]; 300 μg dose group): 4 subjects
- patients reporting transient burning pain immediately following instillation ([4]; 300 μg intra-articular): 4 of 4
- reduction of VAS pain score, before administration vs day of surgery ([4]; 9 active patients of the 4, 7 and 14 day cohorts, doses 10-300 μg pooled): 62±14%
- effects on laboratory safety parameters or vital signs ([4]; 10-300 μg intra-articular): no treatment related effects
- effects on soft tissue, cartilage or bone upon histopathological examination ([4]; 10-300 μg intra-articular): no treatment related effects
- erythema, edema or hemorrhage at the site of injection ([4]; 10-300 μg intra-articular): no treatment related signs
- gross and microscopic pathology ([4]; 10-300 μg intra-articular): normal
- leakage of study drug from the joint space ([4]; 10-300 μg intra-articular): low leakage
- systemic side effects ([4]; 10-300 μg intra-articular): No treatment related systemic side effects
- median decrease from baseline to pre-operative time point in VAS for pain at the target knee, vs placebo ([4]; all 3 capsaicin dose groups): substantially greater
- tolerability ([4]; all dose levels (10, 100, 300 μg)): well tolerated
- onset of post-administration (hyper)algesia after administration ([4]; all episodes, 100 and 300 μg): ≤ 5 min
- effect on proprioception at the injected knee ([4]; any dose group, any time point): no discernable effect
- indication of efficacy on VAS pain ([4]; any of the dose levels (10, 100, 300 μg)): No clear treatment related indication of efficacy
- final NRS (Numerical Rating Scale) pain score [5]: 3.97

Structure (SMILES): CN(C)CCC=C1c2ccccc2CCc2ccccc21 [amitriptyline]
- action when administered locally [6]: produced local antinociceptive actions

Structure (SMILES): CN1C(C(=O)Nc2ccccn2)=C(O)c2ccccc2S1(=O)=O [piroxicam]
- patients experiencing gross bleeding and ulceration [7]: up to 4%

Structure (SMILES): CNCCCN1c2ccccc2CCc2ccccc21 [desipramine]
- action when administered locally [6]: produced local antinociceptive actions
